Results: patent publication US20170196175A1, “COMPOSITIONS FOR THE DELIVERY OF AGROCHEMICALS TO THE ROOTS OF A PLANT” (ADAMA MAKHTESHIM LTD., priority 2014, published 2017)

Columns and labels:
Solanum Nigrum = experiment: Weed development and mortality (Example 11); format: in vivo; details: for Weed control, unit versus spray practice: damage of weed buds from 13 days to end of trial
Excerpt: Weeds: 30 seeds of Solanum Nigrum per pot.
Analysis of weeds parameters: Fresh biomass, size and total area covered by weeds per pot.

[1] = Diffusion of Atrazine and Mesotrione from units submerged in free water; format: physicochemical; details: over 5 days
Procedure: A unit (each from the table above) was placed within a 500 cc vial. 250 cc of DI water were added. The vial was cover with punched Parafilm and stored at room temperature. After 24 hours, the free water, which didn't absorbed by the polymer, were drained and stored in a cold room. DI water at the same volume was refilled into the vial. Repeated this stage after 72 and 120 hours.

[2] = Example 12; cited from earlier work
[3] = Azoxystrobin content in pepper leaves (Example 12); format: in vivo
Procedure: Planting/harvesting dates: (47 days). Following harvest, unit samples from all treatments were excavated gently and were quantified for roots penetration and total root length. A core from the middle of each sample was cut and analyzed for root content. Root count in both vertical and horizontal axes and total volume were used estimating the root total length within a single unit. Total leaves biomass of each plant was analyzed to Azoxystrobin content in qualified laboratory (Bactochem, Israel).
Azoxystrobin application through the soil was studied as part of its registration process. The concentration in pepper leaves was measured over time from application. Similar Azoxystrobin concentrations in leaves were found in both commercial and current trial (tenth of ppm). […] This significant difference may inform the potential of the unit for protecting the plant for longer periods compared to current application practice.

[4] = soil application studied as part of registration process, 28 DAP; cited from earlier work
maize = experiment: Crop selectivity (Example 11); format: in vivo
Excerpt: Soil: 10 liter pots (surface area of 0.045 m^2) filled with Rehovot Sand (High sand fraction, low OM, low EC, low CEC, and High pH).
Crops: 6 maize plants per pot following herbicide application (high demand to fertilizers with selectivity).
Analysis of crop development parameters: Height and fresh biomass.

| Compound | Weed control, unit versus spray practice (Solanum Nigrum) | Dose released from the new units to the surrounding free water [1] | DT50 [2] | Azoxystrobin concentration in unit leaves ([3]; 47 DAP) | Difference in Azoxystrobin concentration in leaves between fully fertilized and no fertilizer ([3]; DAP 47) | Azoxystrobin concentration in leaves ([3]; pepper, unit and commercial trial) | Azoxystrobin residue in commercial leaves [4] | Weed control, half application rate in unit versus full spray rate (Solanum Nigrum; in vivo) | Crop selectivity (crop height, color, final fresh biomass) (maize; double and fourfold doses) | Crop selectivity (crop height, color, final fresh biomass) (maize; standard dose) |
| --- | --- | --- | --- | --- | --- | --- | --- | --- | --- | --- |
| CCNc1nc(Cl)nc(NC(C)C)n1 [Atrazine] | no difference between unit and spray practices | up to 10% | – | – | – | – | – | – | – | – |
| CO/C=C(/C(=O)OC)c1ccccc1Oc1cc(Oc2ccccc2C#N)ncn1 [Azoxystrobin] | – | – | 100 to 150 days | effective concentrations were found | 5 fold | tenth of ppm | no residue were found | – | – | – |
| CS(=O)(=O)c1ccc(C(=O)C2C(=O)CCCC2=O)c([N+](=O)[O-])c1 [Mesotrione] | significant advantages of unit over spray | up to 25% | – | – | – | – | – | more effective than full spray rate | yellowish and slight shorter (fourfold only), yet no difference was found in fresh biomass | selective |
